From patent US7049138B2, “Epitope-tagged beta-amyloid precursor protein and DNA encoding the same” (Bristol-Myers Squibb Company, priority 1999, dated 2006)

System: HA 11 A-beta (1-40) accumulation in HEK 293/HA 11 beta-APP 695 cells
Assay: Accumulation of HA 11 A-beta (1-40) in HEK 293/HA 11 beta-APP 695 conditioned medium, position 40-specific ELISA
Type: cell-based, human
Conditions: 96-well, serum-free medium with 0.2% BSA, 16 hours, dose-response, versus DMSO vehicle
Procedure: HEK 293/HA 11 beta-APP 695 cells were plated at confluence in 96-well plates and the indicated dose-response of either MDL 28170 (panel A), or Brefeldin A (panel B) was added for 16 hours. The accumulation of HA 11 A-beta (1-40) (position 40-specific antibody; QCB) was determined as in FIG. 5. Results are expressed as percentage inhibition of HA 11 A-beta (1-40) accumulation in comparison to wells incubated with vehicle (dimethyl sulfoxide, DMSO) alone.
Panel A: Immulon 2 microtiter wells were coated with mAB anti-HA 11 (5 μg/mL in PBS, 4° C., overnight), washed with PBS and blocked with 5% BSA in PBS. […] The change of absorbance of duplicate wells was determined at […] and results corrected for binding of antibodies to wells in the absence of peptide. […]
HEK 293/HA 11 beta-APP 695 cells were plated in 96-well tissue culture dishes in serum-free medium containing 0.2% BSA (1×10^6 cells/cm^2). The conditioned medium was harvested at the indicated times and analyzed for the presence of HA 11 A-beta position 40, as in example 4. HA 11 A-beta polypeptides ending at position 42 were detected in a similar ELISA system. […] Bound HA 11 A-beta 42 was detected with biotin-labeled mAB 108 (specific for the neo-epitope generated upon cleavage of beta-APP by […]), followed by HRP-labeled streptavidin and TMB substrate. […]

For `C[C@H]1CCC/C=C/[C@@H]2C[C@H](O)C[C@H]2[C@H](O)/C=C/C(=O)O1` [brefeldin A, Brefeldin A], the “HA 11 A-beta accumulation in conditioned medium” value was “decrease in the HA 11 A-beta accumulation”.
MDL 28170 was tested, and the “HA 11 A-beta accumulation in conditioned medium” value was “decrease in the HA 11 A-beta accumulation”.
